Results: patent publication US9260435B2, “Substituted imidazopyrazines as Akt kinase inhibitors” (Bayer Intellectual Property GmbH, priority 2012, dated 2016)

Tests used:
[1] = molecular target: His-tagged human recombinant kinase full-length Akt2 (Homo sapiens (Human), UniProt P31751); assay: Akt2 kinase assay (TR-FRET); assay type: biochemical; details: 10 μM ATP, read-out: Akt2, median IC50
From the text: Biological Assay 2.0: Akt2 Kinase Assay
Akt2 inhibitory activity of compounds of the present invention was quantified employing the Akt2 TR-FRET assay as described in the following paragraphs.
His-tagged human recombinant kinase full-length Akt2 expressed in insect cells and activated by PDK1 was purchased from Invitrogen (part number PV 3975). As substrate for the kinase reaction the biotinylated peptide biotin-Ahx-KKLNRTLSFAEPG (C-terminus in amide form) was used which can be purchased e.g. from the company Biosynthan GmbH (Berlin-Buch, Germany).
For the assay 50 nl of a 100 fold concentrated solution of the test compound in DMSO was pipetted into a black low volume 384 well microtiter plate (Greiner Bio-One, Frickenhausen, Germany), 2 μl of a solution of Akt2 in assay buffer [50 mM TRIS/HCl pH 7.5, 5 mM MgCl2, 1 mM dithiothreitol, 0.02% (v/v) Triton X-100 (Sigma)] were added and the mixture was incubated for 15 min at 22° C. to allow prebinding of the test compounds to the enzyme before the start of the kinase reaction. Then the kinase reaction was started by the addition of 3 μl of a solution of adenosine-tri-phosphate (ATP, 16.7 μM=>final conc. in the 5 μl assay volume is 10 μM) and substrate (1.67 μM=>final conc. in the 5 μl assay volume is 1 μM) in assay buffer and the resulting mixture was incubated for a reaction time of 60 min at 22° C. The concentration of Akt2 in the assay was adjusted depending of the activity of the enzyme lot and was chosen appropriate to have the assay in the linear range, typical enzyme concentrations were in the range of about 0.2 ng/μl (final conc. in the 5 μl assay volume).
The reaction was stopped by the addition of 5 μl of a solution of HTRF detection reagents (200 nM streptavidine-XL665 [Cisbio] and 1.5 nM anti-phosho-Serine antibody [Millipore, cat. #35-001] and 0.75 nM LANCE Eu-W 1024 labeled anti-mouse IgG antibody [Perkin Elmer]) in an aqueous EDTA-solution (100 mM EDTA, 0.1% (w/v) bovine serum albumin in 50 mM HEPES/NaOH pH 7.5).
The resulting mixture was incubated 1 h at 22° C. to allow the binding of the biotinylated phosphorylated peptide to the streptavidine-XL665 and the antibodies. Subsequently the amount of phosphorylated substrate was evaluated by measurement of the resonance energy transfer from the anti-mouse-IgG-Eu-Chelate to the streptavidine-XL665. Therefore, the fluorescence emissions at 620 nm and 665 nm after excitation at 350 nm was measured in a TR-FRET reader, e.g. a Rubystar (BMG Labtechnologies, Offenburg, Germany) or a Viewlux (Perkin-Elmer). The ratio of the emissions at 665 nm and at […] was taken as the measure for the amount of phosphorylated substrate. The data were normalised (enzyme reaction without inhibitor=0% inhibition, all other assay components but no enzyme=100% inhibition).

[2] = test system: KPL-4 breast cancer cell line; assay: Tumor cell proliferation assay (CellTiter-Glo, 72 h), KPL-4; assay type: cell-based; details: Homo sapiens, KPL4, 72 h drug exposure; for inhibition at 1.67 µM: read-out: KPL-4 median inhibition at 1.67 μM (%)
Method: (§1) Biological Assay 4.0: Tumor Cell Proliferation Assays
(§2) Compounds were tested in a cell-based assay that measures the capacity of the compounds to inhibit tumour cell proliferation following a 72 h drug exposure. Cell viability is determined using CellTiter-Glow® (CTG, Promega, cat# G7571/2/3). The CellTiter-Glo® Luminescent Cell Viability Assay is a homogeneous method to determine the number of viable cells in culture. Detection is based on using the luciferase reaction to measure the amount of ATP from viable cells. The amount of ATP in cells correlates with cell viability. Within minutes after a loss of membrane integrity, cells lose the ability to synthesize ATP, and endogenous ATPases destroy any remaining ATP; thus the levels of ATP fall precipitously.
(§3) Cells were plated at 3000-5000 cells/well (depending on the cell lines) in 90 μL growth medium on MTPs (Corning; #3603, black plate, clear flat bottom). For each cell line assayed, cells were plated onto a separate plate for determination of […] at t=0 hour and t=72 hour time points. Following overnight incubation at 37° C., chemiluminescence values for the t=0 samples were determined after adding 10 μl medium and 100 μl CTG solution according to manufacture protocol. Plates for the t=72 hour time points were treated with compounds diluted into growth medium at ten times final concentration added in 10 μL to the cell culture plate. Cells were then incubated for 72 hours at 37° C. Chemiluminescence values for the t=72 hour samples were determined. […] Experiments were controlled using a reference compound as standard.
(§4) Preferred compounds of the present invention show in this assay an inhibition of cell growth of cell lines such as the KPL-4 breast cancer cell line and the MCF-7 breast tumour cell line ([…], hormone dependent) with a median IC50 of <10 μM, more preferably, median IC50≦1 μM.

[3] = test system: MCF-7 breast tumour cell line; assay: Tumor cell proliferation assay (CellTiter-Glo, 72 h), MCF-7; assay type: cell-based; details: Homo sapiens, MCF7, 72 h drug exposure; for inhibition at 1.67 µM: read-out: MCF-7 median inhibition at 1.67 μM (%)
Method: as §1, §2, §3, §4

Sequence of His-tagged human recombinant kinase full-length Akt2 (P31751 whole entry): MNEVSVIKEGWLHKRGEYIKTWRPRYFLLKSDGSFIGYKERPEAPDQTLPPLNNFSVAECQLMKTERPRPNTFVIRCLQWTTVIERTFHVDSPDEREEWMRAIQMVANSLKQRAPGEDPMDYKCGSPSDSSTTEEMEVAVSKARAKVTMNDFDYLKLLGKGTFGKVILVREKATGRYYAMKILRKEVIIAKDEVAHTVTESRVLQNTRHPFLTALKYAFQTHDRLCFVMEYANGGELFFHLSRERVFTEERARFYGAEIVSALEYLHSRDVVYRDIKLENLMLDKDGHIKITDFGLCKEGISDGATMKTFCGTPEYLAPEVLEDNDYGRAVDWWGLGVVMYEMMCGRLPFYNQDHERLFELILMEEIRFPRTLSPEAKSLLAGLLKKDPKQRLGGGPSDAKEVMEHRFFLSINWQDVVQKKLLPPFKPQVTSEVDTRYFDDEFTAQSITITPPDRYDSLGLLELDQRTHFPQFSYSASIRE

SMILES | IC50 [1] | IC50 [2] | IC50 [3] | inhibition at 1.67 µM [2] | inhibition at 1.67 µM [3]
Cc1cn2c(-c3ccccc3)c(-c3ccc(C4(N)CCC4)cc3)nc2c(C)n1 [Example 2, 1-[4-(6,8-Dimethyl-3-phenylimidazo[1,2-a]pyrazin-2-yl)phenyl]-cyclobutanamine] | 220 nM | 710 nM | 720 nM | 68% | 70.8%
COc1nc(Br)cn2c(-c3ccccc3)c(-c3ccc(C4(N)CCC4)cc3)nc12 [Example 3, 1-[4-(6-Bromo-8-methoxy-3-phenylimidazo[1,2-a]pyrazin-2-yl)phenyl]cyclobutanamine] | 33 nM | 1700 nM | 1700 nM | 57% | 46.2%
CCc1cn2c(-c3ccccc3)c(-c3ccc(C4(N)CCC4)cc3)nc2c(OC)n1 [Example 4, 1-[4-(6-Ethyl-8-methoxy-3-phenylimidazo[1,2-a]pyrazin-2-yl)phenyl]cyclobutanamine] | 34 nM | 1200 nM | 850 nM | 64.4% | 72.4%
NC(=O)c1cn2c(-c3ccccc3)c(-c3ccc(C4(N)CCC4)cc3)nc2cn1 [Example 6, 2-[4-(1-Aminocyclobutyl)phenyl]-3-phenylimidazo[1,2-a]pyrazine-6-carboxamide] | 97 nM | 290 nM | 1100 nM | 79.5% | 57.3%

Now from value to compound, other results behind:

IC50 [1] | IC50 [2] | IC50 [3] | SMILES | inhibition at 1.67 µM [2] | inhibition at 1.67 µM [3]
86 nM | 5500 nM | 420 nM | COC(=O)c1cn2c(-c3ccccc3)c(-c3ccc(C4(N)CCC4)cc3)nc2c(OC)n1 [Example 7, Methyl 2-[4-(1-aminocyclobutyl)phenyl]-8-methoxy-3-phenylimidazo[1,2-a]pyrazine-6-carboxylate] | 22% | 72.3%
14 nM | 150 nM | 270 nM | COc1nc(C(N)=O)cn2c(-c3ccccc3)c(-c3ccc(C4(N)CCC4)cc3)nc12 [Example 8, 2-[4-(1-Aminocyclobutyl)phenyl]-8-methoxy-3-phenylimidazo[1,2-a]pyrazine-6-carboxamide] | 83.6% | 73.1%
